Data reported in ChEMBL document CHEMBL2074529, “Increased sensitivity to gemcitabine of P-glycoprotein and multidrug resistance-associated protein-overexpressing human cancer cell lines” (Br J Cancer, 2003).

Columns and labels:
Format in all cases: functional, cell-based
[1] = molecular target: T1, ATP-dependent translocase ABCB1 (Homo sapiens, UniProt P08183); experiment: TP_TRANSPORTER: drug resistance in MDR1-expressing BROmdr cells
[2] = molecular target: T1, ATP-dependent translocase ABCB1; experiment: TP_TRANSPORTER: drug resistance in 2780AD cells
[3] = molecular target: T1, ATP-dependent translocase ABCB1; experiment: TP_TRANSPORTER: drug resistance in 2RI60 cells
[4] = molecular target: T1, ATP-dependent translocase ABCB1; experiment: TP_TRANSPORTER: drug resistance in […]-expressing SWI573/SI(I.I) cells

T1 sequence (P08183 whole entry): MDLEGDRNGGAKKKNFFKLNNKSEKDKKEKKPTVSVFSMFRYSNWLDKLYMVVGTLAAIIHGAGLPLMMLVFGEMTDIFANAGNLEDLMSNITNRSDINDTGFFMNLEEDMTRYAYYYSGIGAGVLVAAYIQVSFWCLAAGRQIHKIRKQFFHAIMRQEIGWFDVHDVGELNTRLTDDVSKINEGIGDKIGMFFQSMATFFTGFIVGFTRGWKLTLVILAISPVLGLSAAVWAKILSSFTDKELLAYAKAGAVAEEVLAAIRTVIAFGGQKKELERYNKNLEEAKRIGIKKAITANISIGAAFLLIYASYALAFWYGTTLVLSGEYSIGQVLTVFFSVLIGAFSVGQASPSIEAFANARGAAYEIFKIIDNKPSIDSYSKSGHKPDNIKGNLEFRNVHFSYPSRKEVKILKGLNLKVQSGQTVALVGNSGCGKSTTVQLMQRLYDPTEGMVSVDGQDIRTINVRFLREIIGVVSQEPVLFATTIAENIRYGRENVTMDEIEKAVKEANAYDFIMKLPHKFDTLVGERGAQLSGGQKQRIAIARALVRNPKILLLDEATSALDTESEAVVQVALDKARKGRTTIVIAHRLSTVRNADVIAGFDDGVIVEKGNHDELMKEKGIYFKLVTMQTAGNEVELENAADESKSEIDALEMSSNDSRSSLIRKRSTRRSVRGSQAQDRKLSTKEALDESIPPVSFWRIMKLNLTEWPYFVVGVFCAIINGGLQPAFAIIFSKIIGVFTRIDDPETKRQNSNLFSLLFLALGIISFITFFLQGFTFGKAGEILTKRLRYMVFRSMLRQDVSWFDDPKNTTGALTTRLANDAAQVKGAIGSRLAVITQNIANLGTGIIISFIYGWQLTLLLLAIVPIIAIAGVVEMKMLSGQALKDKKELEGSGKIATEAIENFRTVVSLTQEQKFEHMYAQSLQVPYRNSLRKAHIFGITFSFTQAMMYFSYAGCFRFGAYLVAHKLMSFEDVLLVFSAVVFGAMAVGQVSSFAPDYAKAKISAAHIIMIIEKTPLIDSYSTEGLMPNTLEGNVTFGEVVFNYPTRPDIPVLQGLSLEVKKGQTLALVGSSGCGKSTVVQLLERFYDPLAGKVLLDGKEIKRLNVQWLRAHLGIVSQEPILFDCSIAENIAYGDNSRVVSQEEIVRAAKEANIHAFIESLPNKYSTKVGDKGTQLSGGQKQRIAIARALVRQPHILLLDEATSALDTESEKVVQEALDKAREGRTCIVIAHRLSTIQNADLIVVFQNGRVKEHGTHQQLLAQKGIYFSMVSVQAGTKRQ

Activity [1]: substrate [+] | Activity [2]: substrate [+] | Activity [3]: substrate [+] | Activity [4]: substrate [+]
Compound: Nc1ccn([C@@H]2O[C@H](CO)[C@@H](O)C2(F)F)c(=O)n1 [GEMCITABINE]
